Measurements as given in patent publication US6096744A, “Sulfonamide derivatives of substituted quinoxaline 2,3-diones as glutamate receptor antagonists” (Warner-Lambert Company, priority 1998, dated 2000).

What was measured:
AMPA receptors = assay: AMPA receptor binding affinity (Honore et al.)
[1] = biological target: kainate site (non-NMDA receptor); assay: kainate site (non-NMDA receptor) binding affinity (London and Coyle)
[2] = biological target: T1, glycine site of the NMDA receptor (Rattus norvegicus, UniProt P35439); assay: binding affinity for the glycine site of the NMDA receptor (Jones et al.)
T1 construct: from tissue

| IC50 (AMPA receptors) [µM] | IC50 KA [1] [µM] | IC50 [2] [µM] | SMILES |
| --- | --- | --- | --- |
| 0.21 | 0.29 | 0.1 | Cc1c([N+](=O)[O-])cc2[nH]c(=O)c(=O)[nH]c2c1CN(C)S(C)(=O)=O [Compound 1, N-Methyl-N-(6-methyl-7-nitro-2,3-dioxo-1,2,3,4-tetrahydro-quinoxalin-5-ylmethyl)-methanesulfonamide] |
| 0.56 | 2.63 | > 1 | Cc1ccc(S(=O)(=O)N(C)Cc2c(C)c([N+](=O)[O-])cc3[nH]c(=O)c(=O)[nH]c23)cc1 [Compound 2, 4,N-Dimethyl-N-(6-methyl-7-nitro-2,3-dioxo-1,2,3,4-tetrahydro-quinoxalin-5-ylmethyl)-benzenesulfonamide] |
| 2.6 | 4.77 | > 1 | Cc1c([N+](=O)[O-])cc2[nH]c(=O)c(=O)[nH]c2c1CN(C)S(=O)(=O)c1c(C(C)C)cc(C(C)C)cc1C(C)C [Compound 3, 2,4,6-Triisopropyl-N-methyl-N-(6-methyl-7-nitro-2,3-dioxo-1,2,3,4-tetrahydro-quinoxalin-5-ylmethyl)-benzenesulfonamide] |
| 18 | 26.0 | > 1 | Cc1c([N+](=O)[O-])cc2[nH]c(=O)c(=O)[nH]c2c1CN(C)S(=O)(=O)c1ccc2ccccc2c1 [Compound 4, Naphthalene-2-sulfonic acid methyl-(6-methyl-7-nitro-2,3-dioxo-1,2,3,4-tetrahydro-quinoxalin-5-ylmethyl)-amide] |
